Laboratory results from ChEMBL document CHEMBL1201862, “PubChem BioAssay data set” (2004).
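1) Cells in 96-well plates. 2) Compound, 48 h, 5 concentrations. 3) Linear interpolation between surrounding doses. 4) Unreached endpoint = highest concentration. GI50 = concentration required for 50% inhibition of growth.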 The source made the active and inactive calls. Cut-off read from the data, not from the text of the source: active = GI50 up to about 1.1 µM and inactive = higher.

Experiments:
Assay in all cases: NCI-60 cell line screen, 48 h
[1] = system: TK-10
[2] = system: NCI/ADR-RES
[3] = system: NCI-H23
[4] = system: NCI-H522
[5] = system: CAKI-1
[6] = system: MCF7
[7] = system: Hs-578T
[8] = system: T47D
[9] = system: 786-0
[10] = system: ACHN
[11] = system: A549
[12] = system: OVCAR-8
[13] = system: K562
[14] = system: HCC 2998
[15] = system: Malme-3M
[16] = system: MDA-MB-435
[17] = system: SK-MEL-5
[18] = system: SNB-75
[19] = system: SF-295
[20] = system: DU-145
[21] = system: COLO 205
[22] = system: LOX IMVI
[23] = system: UACC-62
[24] = system: HT-29
[25] = system: SK-OV-3
[26] = system: RXF 393
[27] = system: SF-268
[28] = system: HCT-116
[29] = system: HL-60
[30] = system: M14
[31] = system: PC-3
[32] = system: SW-620
[33] = system: UACC-257
[34] = system: KM12
[35] = system: MOLT-4
[36] = system: IGROV-1
[37] = system: UO-31
[38] = system: HOP-62
[39] = system: BT-549
[40] = system: MDA-N
[41] = system: OVCAR-5
[42] = system: EKVX
[43] = system: SK-MEL-2
[44] = system: NCI-H460
[45] = system: CCRF-CEM
[46] = system: SN12C
[47] = system: SR
[48] = system: SF-539
[49] = system: MDA-MB-231
[50] = system: OVCAR-3
[51] = system: OVCAR-4
[52] = system: HCT-15
[53] = system: NCI-H226
[54] = system: HOP-92
[55] = system: SNB-19
[56] = system: RPMI-8226
[57] = system: U-251
[58] = system: SK-MEL-28

CC(=O)n1nc(-c2ccc3ccccc3c2)nc1C
GI50 [1]: > 100 µM (inactive) | GI50 [2]: > 100 µM (inactive) | GI50 [3]: > 10 µM (inactive) | GI50 [4]: > 100 µM (inactive) | GI50 [5]: 53.7 µM (inactive) | GI50 [6]: > 100 µM (inactive) | GI50 [7]: 39.4 µM (inactive) | GI50 [8]: 52.4 µM (inactive) | GI50 [9]: > 100 µM (inactive) | GI50 [10]: 73.1 µM (inactive) | GI50 [11]: 81.1 µM (inactive) | GI50 [12]: > 100 µM (inactive) | GI50 [13]: 90.8 µM (inactive) | GI50 [14]: > 100 µM (inactive) | GI50 [15]: > 100 µM (inactive) | GI50 [16]: 33.7 µM (inactive) | GI50 [17]: 36.1 µM (inactive) | GI50 [18]: 70.3 µM (inactive) | GI50 [19]: 52.8 µM (inactive) | GI50 [20]: 94.6 µM (inactive) | GI50 [21]: > 100 µM (inactive) | GI50 [22]: 57.3 µM (inactive) | GI50 [23]: 89.9 µM (inactive) | GI50 [24]: > 100 µM (inactive) | GI50 [25]: > 100 µM (inactive) | GI50 [26]: > 100 µM (inactive) | GI50 [27]: > 100 µM (inactive) | GI50 [28]: 67.3 µM (inactive) | GI50 [29]: 46 µM (inactive) | GI50 [30]: > 100 µM (inactive) | GI50 [31]: 62.2 µM (inactive) | GI50 [32]: 32.8 µM (inactive) | GI50 [33]: 83.9 µM (inactive) | GI50 [34]: 23.9 µM (inactive) | GI50 [35]: 56.8 µM (inactive) | GI50 [36]: > 100 µM (inactive) | GI50 [37]: 39.4 µM (inactive) | GI50 [38]: 39.5 µM (inactive) | GI50 [39]: 48.6 µM (inactive) | GI50 [40]: 70.8 µM (inactive) | GI50 [41]: > 100 µM (inactive) | GI50 [42]: 63 µM (inactive) | GI50 [43]: > 100 µM (inactive) | GI50 [44]: 95.9 µM (inactive) | GI50 [45]: 83.8 µM (inactive) | GI50 [46]: > 100 µM (inactive) | GI50 [47]: > 100 µM (inactive) | GI50 [48]: > 100 µM (inactive) | GI50 [49]: > 100 µM (inactive) | GI50 [50]: > 100 µM (inactive) | GI50 [51]: 91 µM (inactive) | GI50 [52]: 35.6 µM

COC1=CC(=O)c2c(cc(COP(=O)(OCC3OC(n4cc(F)c(=O)[nH]c4=O)CC3O)N(C)CCCCCl)n2C)C1=O (stereo unspecified)
GI50 [1]: 1.81 µM (inactive) | GI50 [2]: 0.678 µM (active) | GI50 [53]: 0.546 µM (active) | GI50 [3]: 0.142 µM (active) | GI50 [4]: 0.495 µM (active) | GI50 [5]: 0.0102 µM (active) | GI50 [6]: < 0.01 µM (active) | GI50 [7]: 0.0877 µM (active) | GI50 [8]: 0.991 µM (active) | GI50 [9]: 0.186 µM (active) | GI50 [10]: < 0.01 µM (active) | GI50 [11]: < 0.01 µM (active) | GI50 [12]: 0.0593 µM (active) | GI50 [13]: 1.98 µM (inactive) | GI50 [14]: < 0.01 µM (active) | GI50 [15]: 2.42 µM (inactive) | GI50 [16]: 1.04 µM (active) | GI50 [17]: 0.0329 µM (active) | GI50 [18]: < 0.0124 µM (active) | GI50 [19]: < 0.0132 µM (active) | GI50 [20]: 0.321 µM (active) | GI50 [54]: 0.137 µM (active) | GI50 [22]: 0.0148 µM (active) | GI50 [23]: 0.0736 µM (active) | GI50 [24]: 0.233 µM (active) | GI50 [26]: 0.0478 µM (active) | GI50 [27]: < 0.01 µM (active) | GI50 [28]: 0.138 µM (active) | GI50 [29]: 0.195 µM (active) | GI50 [30]: 0.136 µM (active) | GI50 [31]: 0.173 µM (active) | GI50 [32]: 0.141 µM (active) | GI50 [33]: 18.5 µM (inactive) | GI50 [34]: 10 µM (inactive) | GI50 [35]: 0.0527 µM (active) | GI50 [36]: 0.479 µM (active) | GI50 [37]: 0.0605 µM (active) | GI50 [38]: 0.0413 µM (active) | GI50 [39]: 1.56 µM (inactive) | GI50 [40]: 0.41 µM (active) | GI50 [41]: 7.45 µM (inactive) | GI50 [42]: 3.86 µM (inactive) | GI50 [43]: 17.7 µM (inactive) | GI50 [44]: < 0.01 µM (active) | GI50 [45]: < 0.01 µM (active) | GI50 [46]: < 0.0248 µM (active) | GI50 [47]: < 0.01 µM (active) | GI50 [55]: 0.951 µM (active) | GI50 [48]: < 0.0118 µM (active) | GI50 [56]: < 0.0237 µM (active) | GI50 [49]: 3.82 µM (inactive) | GI50 [50]: 1.2 µM (inactive) | GI50 [57]: 0.409 µM (active) | GI50 [51]: 1.82 µM (inactive) | GI50 [52]: 7.55 µM

N#Cc1nc(-c2ccc(-c3nc(C#N)c(N)o3)cc2)oc1N
GI50 [1]: > 10 µM (inactive) | GI50 [2]: > 10 µM (inactive) | GI50 [53]: > 10 µM (inactive) | GI50 [3]: > 10 µM (inactive) | GI50 [4]: > 10 µM (inactive) | GI50 [5]: > 10 µM (inactive) | GI50 [6]: > 10 µM (inactive) | GI50 [7]: > 10 µM (inactive) | GI50 [8]: > 10 µM (inactive) | GI50 [9]: > 10 µM (inactive) | GI50 [10]: > 10 µM (inactive) | GI50 [11]: > 10 µM (inactive) | GI50 [12]: > 10 µM (inactive) | GI50 [13]: > 10 µM (inactive) | GI50 [14]: > 10 µM (inactive) | GI50 [15]: > 10 µM (inactive) | GI50 [16]: > 10 µM (inactive) | GI50 [17]: > 10 µM (inactive) | GI50 [18]: > 10 µM (inactive) | GI50 [19]: > 10 µM (inactive) | GI50 [20]: > 10 µM (inactive) | GI50 [21]: > 10 µM (inactive) | GI50 [54]: > 10 µM (inactive) | GI50 [22]: > 10 µM (inactive) | GI50 [23]: > 10 µM (inactive) | GI50 [24]: > 10 µM (inactive) | GI50 [25]: > 10 µM (inactive) | GI50 [26]: > 10 µM (inactive) | GI50 [27]: > 10 µM (inactive) | GI50 [28]: > 10 µM (inactive) | GI50 [29]: > 10 µM (inactive) | GI50 [30]: > 10 µM (inactive) | GI50 [31]: > 10 µM (inactive) | GI50 [32]: > 10 µM (inactive) | GI50 [33]: > 10 µM (inactive) | GI50 [34]: > 10 µM (inactive) | GI50 [35]: > 10 µM (inactive) | GI50 [36]: > 10 µM (inactive) | GI50 [37]: > 10 µM (inactive) | GI50 [38]: > 10 µM (inactive) | GI50 [39]: > 10 µM (inactive) | GI50 [40]: > 10 µM (inactive) | GI50 [42]: > 10 µM (inactive) | GI50 [44]: > 10 µM (inactive) | GI50 [45]: > 10 µM (inactive) | GI50 [46]: > 10 µM (inactive) | GI50 [47]: > 10 µM (inactive) | GI50 [55]: > 10 µM (inactive) | GI50 [48]: > 10 µM (inactive) | GI50 [58]: > 10 µM (inactive) | GI50 [56]: > 10 µM (inactive) | GI50 [49]: > 10 µM (inactive) | GI50 [51]: > 10 µM (inactive) | GI50 [52]: > 10 µM
